Literature values, collected in patent US20030073219A1, “Crystal structure” (priority 2001, published 2003).

Molecular target: ApbA protein (ketopantoate reductase) (Salmonella typhimurium, UniProt P37402)
Conditions: purified ApbA protein from S. typhimurium; substrate/cofactor KM; read-out: apparent KM

Chain of ApbA protein (ketopantoate reductase) (P37402 whole entry): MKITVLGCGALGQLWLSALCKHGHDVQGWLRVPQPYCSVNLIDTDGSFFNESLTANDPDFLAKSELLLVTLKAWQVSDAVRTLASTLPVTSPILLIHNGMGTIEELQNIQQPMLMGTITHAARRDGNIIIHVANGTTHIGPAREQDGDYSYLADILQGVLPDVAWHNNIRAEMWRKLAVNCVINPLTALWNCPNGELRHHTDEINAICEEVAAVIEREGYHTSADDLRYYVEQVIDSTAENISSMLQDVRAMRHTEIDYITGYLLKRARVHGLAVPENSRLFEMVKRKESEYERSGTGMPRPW

Row | Compound | Km [µM]
1 | NC(=O)C1=CN([C@@H]2O[C@H](COP(=O)(O)OP(=O)(O)OC[C@H]3O[C@@H](n4cnc5c(N)ncnc54)[C@H](OP(=O)(O)O)[C@@H]3O)[C@@H](O)[C@H]2O)C=CC1 [NADPH] | 770
2 | CC(C)(CO)C(=O)C(=O)O [ketopantoate] | 740
